Data from the supplement of paper PMC11451515.

Key:
Experiment in all cases: AUC of viability dose-response curve (% viability x log10 dose units); higher = less sensitive
Conditions in all cases: 48 h
P12-Ichikawa = test system: P12-Ichikawa
How it was run: (§1)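 Leukemia cells adapted to each medium were seeded in 1536-well plates (500 or 1000 cells/well) and given library compounds in DMSO for 48 h at 37°C. The 11 threefold doses spanned 47 μM to 0.79 nM, and CellTiter-Glo One luminescence was normalised per plate to DMSO and cell-free wells before four-parameter log-logistic fitting on log10 dose. Area under the curve was integrated with the trapezoidal rule, scaling curves above full viability and removing curves that failed quality control.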

NOMO1 = test system: NOMO1
How it was run: as §1

SEM cells = test system: SEM cells
How it was run: as §1

[1] = RPMI 5 mM glucose + 10% dialyzed FBS

| Structure (SMILES) | AUC of viability dose-response curve (P12-Ichikawa; HPLM + 10% dialyzed FBS) | AUC of viability dose-response curve (P12-Ichikawa; RPMI 5 mM glucose + 10% FBS) | AUC of viability dose-response curve (P12-Ichikawa; [1]) | AUC of viability dose-response curve (NOMO1; HPLM + 10% dialyzed FBS) | AUC of viability dose-response curve (NOMO1; RPMI 5 mM glucose + 10% FBS) | AUC of viability dose-response curve (NOMO1; [1]) | AUC of viability dose-response curve (SEM cells; HPLM + 10% dialyzed FBS) | AUC of viability dose-response curve (SEM cells; RPMI 5 mM glucose + 10% FBS) | AUC of viability dose-response curve (SEM cells; [1]) |
| --- | --- | --- | --- | --- | --- | --- | --- | --- | --- |
| COC(=O)N[C@H](C(=O)N[C@@H](Cc1ccccc1)[C@@H](O)CN(Cc1ccc(-c2ccccn2)cc1)NC(=O)[C@@H](NC(=O)OC)C(C)(C)C)C(C)(C)C | 455 | 467 | 451 | 388 | 470 | 453 | 464 | 457 | 469 |
| c1ccc2c(Oc3nc(Nc4ccc(N5CCOCC5)cc4)c4ncn(C5CCCCC5)c4n3)cccc2c1 | 451 | 462 | 466 | 439 | 440 | 466 | 462 | 452 | 458 |
| COC1=CC=C2C(=CC=NC2=C1)OC3=CC=C(NC(=O)\C4=C(C)\N(CC(C)(C)O)N(C4=O)C5=CC=CC=C5)C=C3F | 472 | 468 | 469 | 459 | 468 | 467 | 404 | 379 | 365 |
| Cn1cc(-c2ccc3ncc(Cc4ccc5ncccc5c4)n3n2)cn1 | 472 | 474 | 470 | 468 | 477 | 472 | 450 | 452 | 450 |
| C[C@H]1[C@@H](CC(C[C@H]2O[C@@H]3O[C@]4(C)CC[C@H]5[C@H](C)CC[C@@H]([C@H]2C)[C@@]35OO4)C[S+](=O)([O-])c2ccc(COC(=O)N(C)C)cc2)O[C@@H]2O[C@]3(C)CC[C@H]4[C@H](C)CC[C@@H]1[C@@]24OO3 | 351 | 348 | 341 | 301 | 329 | 299 | 297 | 284 | 284 |
| O=C(NC1CC1)c1cccc(-c2ccc3c(NC(=O)C4CC4)n[nH]c3c2)c1 | 418 | 419 | 426 | 450 | 448 | 451 | 430 | 425 | 422 |
| NC12CC3CC(CC(C3)C1)C2 | 466 | 466 | 476 | 448 | 470 | 461 | 435 | 401 | 371 |
| CCOC(=O)c1ncn2c1CN(C)C(=O)c1cc(F)ccc1-2 | 427 | 432 | 424 | 433 | 432 | 465 | 421 | 420 | 422 |
| CC(C)c1ccc2oc3nc(N)c(C(=O)O)cc3c(=O)c2c1 | 467 | 470 | 474 | 469 | 470 | 472 | 466 | 449 | 462 |
| CCC(=O)O[C@@]1([C@H](C)C[C@H]2[C@@H]3C[C@H](F)\C4=C\C(=O)\C=C/[C@]4(C)[C@@]3(F)[C@@H](O)C[C@]12C)C(=O)SCF | 342 | 292 | 290 | 455 | 465 | 439 | 328 | 325 | 280 |
| CNC(=O)c1c(F)cccc1Nc1nc(Nc2cc3c(cc2OC)CCN3C(=O)CN(C)C)nc2[nH]ccc12 | 446 | 463 | 454 | 384 | 459 | 454 | 269 | 253 | 272 |
| COc1ccc(-c2nc3cc(C4=NNC(=O)CC4C)ccc3[nH]2)cc1 (centres undefined) | 473 | 465 | 470 | 445 | 459 | 461 | 467 | 462 | 465 |
| CCC1=C(C)CN(C(=O)NCCc2ccc(S(=O)(=O)NC(=O)N[C@H]3CC[C@H](C)CC3)cc2)C1=O | 458 | 442 | 458 | 475 | 439 | 457 | 417 | 443 | 445 |
| CCCCOc1ccc(C(=O)Nc2ccc(F)cc2F)cc1 | 423 | 422 | 408 | 437 | 420 | 433 | 377 | 383 | 385 |
| COC1=CC=C(C=C1)C/2=C/OC3=CC(=CC=C3C2=O)O | 451 | 461 | 456 | 422 | 451 | 437 | 445 | 458 | 430 |
| N#Cc1c(C2CCNCC2)cc(-c2c(O)cccc2OCC2CC2)nc1N | 453 | 430 | 446 | 455 | 450 | 447 | 441 | 446 | 435 |

| Structure (SMILES) | AUC of viability dose-response curve (P12-Ichikawa; HPLM + 10% dialyzed FBS) | AUC of viability dose-response curve (P12-Ichikawa; RPMI 5 mM glucose + 10% FBS) | AUC of viability dose-response curve (P12-Ichikawa; [1]) | AUC of viability dose-response curve (NOMO1; HPLM + 10% dialyzed FBS) | AUC of viability dose-response curve (NOMO1; RPMI 5 mM glucose + 10% FBS) | AUC of viability dose-response curve (NOMO1; [1]) | AUC of viability dose-response curve (SEM cells; HPLM + 10% dialyzed FBS) | AUC of viability dose-response curve (SEM cells; RPMI 5 mM glucose + 10% FBS) | AUC of viability dose-response curve (SEM cells; [1]) |
| --- | --- | --- | --- | --- | --- | --- | --- | --- | --- |
| Cc1c(OCC(F)(F)F)ccnc1C[S+]([O-])c1nc2ccccc2[nH]1 (centres undefined) | 466 | 459 | 471 | 456 | 469 | 448 | 420 | 475 | 453 |
| CO[C@@H]1[C@H](N(C)C(=O)c2ccccc2)C[C@H]2O[C@]1(C)n1c3ccccc3c3c4c(c5c6ccccc6n2c5c31)C(=O)NC4 | 373 | 380 | 386 | 415 | 424 | 412 | 313 | 308 | 305 |
| CCOc1cc2c(c(F)c1OCC)C(=N)N(CC(=O)c1cc(N3CCOCC3)c(OC)c(C(C)(C)C)c1)C2 | 465 | 472 | 475 | 464 | 435 | 453 | 465 | 464 | 453 |
| CC(C)(Cc1ccc2ccccc2c1)NC[C@@H](O)COc1cccc(Cl)c1C#N | 453 | 449 | 451 | 458 | 455 | 451 | 448 | 466 | 438 |
| CC1=C(/C=C/C(C)=C/C=C/C(C)=C/C(=O)Nc2ccc(O)cc2)C(C)(C)CCC1 | 326 | 311 | 276 | 347 | 348 | 341 | 301 | 322 | 274 |
| CCCCCCCCCCCCCCCC(=O)OC[C@@H](NC(=O)C(Cl)Cl)[C@H](O)c1ccc([N+](=O)[O-])cc1 | 470 | 429 | 461 | 450 | 461 | 445 | 464 | 468 | 455 |
| CCOC(=O)c1ccc(C#Cc2ccc3c(c2)C(C)(C)CCS3)nc1 | 470 | 469 | 475 | 436 | 467 | 450 | 472 | 477 | 446 |
| COc1ccc(-c2c(-c3ccc(O)cc3O)n[nH]c2C)cc1 | 465 | 464 | 468 | 449 | 467 | 466 | 428 | 405 | 431 |
| CC(=O)SCC(Cc1ccccc1)C(=O)NCC(=O)OCc1ccccc1 (centres undefined) | 439 | 445 | 418 | 390 | 358 | 351 | 451 | 443 | 442 |
| CCOc1ccccc1OCCNC(C)Cc1ccc(OC)c([S+](N)(=O)[O-])c1 (centres undefined) | 471 | 462 | 471 | 468 | 461 | 466 | 459 | 462 | 464 |
| CN(C)CCC=C1C2=C(C=CC=C2)\C=C/C3=C1C=CC=C3 | 449 | 401 | 469 | 418 | 440 | 438 | 459 | 438 | 466 |
| CC(Oc1ccc(O)cc1)(P(=O)(O)O)P(=O)(O)O | 434 | 401 | 418 | 415 | 399 | 405 | 427 | 420 | 421 |
| CC(C)[C@H](CO)Nc1nc(Nc2ccc(C(=O)O)c(Cl)c2)c2ncn(C(C)C)c2n1 | 432 | 414 | 425 | 428 | 445 | 462 | 428 | 412 | 462 |
| CN(C)c1nc(N(C)C)nc(N(C)C)n1 | 435 | 436 | 441 | 440 | 454 | 454 | 465 | 453 | 461 |
| CN(C)c1ccc(C(=O)NCCCCCCC(=O)NO)cc1 | 329 | 330 | 317 | 358 | 343 | 354 | 311 | 314 | 316 |
